In patent publication EP0802730B1, “PESTICIDAL COMPOUNDS” (BTG INTERNATIONAL LIMITED, priority 1995, dated 1996):
In brackets after ≈: the same amount, converted by molar mass. Like-named read-outs stand apart in the source and are kept apart here.

Key:
[1] = tested on: Houseflies (MD) (Musca domestica); type: in vivo
Experimental: Female flies were treated on the thorax with a one microlitre drop of test compound dissolved in acetone. Two replicates of 15 flies were used at each dose rate and 6 dose rates were used per compound under test. After treatment, the flies were maintained at a temperature of 20° ± 1°C and kill was assessed 24 and 48 hours after treatment. LD50 values were calculated in micrograms of test compound per fly (see Sawicki et al., Bulletin of the World Health Organisation, 35, 893 (1966) and Sawicki et al., Entomologia and Exp. Appli 10, 253, (1967).

[2] = tested on: Mustard beetles (PC) (Phaedon cochleariae Fab); type: in vivo; details: NA = lack of detectable activity; for PC (LD50): 1 µl acetone drop applied ventrally to adults, kill at 48 hours
Experimental: A one microlitre drop of an acetone solution of the test compound was applied ventrally to adult mustard beetles using a micro drop applicator. The treated insects were maintained for 48 hours after which time kill was assessed. Two replicates each of 20 to 25 mustard beetles were used at each dose level and 5 dose levels were treated comparably. LD50 values were calculated as for houseflies.

[3] = tested on: Mites (TU) (Tetranychus urticae), susceptible strain (GSS); assay: Mite immersion test, susceptible strain GSS; type: in vivo
Experimental: 25 adult female mites were immersed in 35 µl of a solution of the test compound in a 1:4 acetone-water mixture for 30 seconds. The treated insects were maintained at 21° ± 2°C and kill was assessed 72 hours after treatment. […] Three replicates of 25 mites each were used at each dose rate and 5 or 6 dose rates were used per compound under test. LC50 values were calculated in ppm of the solution of the test compound per insect. The test was carried out using a susceptible strain of mites (GSS) supplied by Schering, AG, Berlin.

[4] = tested on: Whitefly (BT) (Bemisia tabaci), susceptible strain (SUD-S); assay: Whitefly residual film vial test, susceptible strain SUD-S; type: in vivo
Experimental: (§1) Acetone solutions (0.100 ml) of the test compounds were placed in 10 ml glass vials and evaporated with rotation to deposit a film of the compound. Thirty adult whiteflies were placed inside the vial, then after 60 minutes, the treated insects were transferred onto untreated cotton leaf discs which were kept moist on a bed of agar gel. The temperature was maintained at 25°C and mortality assessed after 48 hours. Three replicates were used at each of 5 to 7 dose levels per compound.

[5] = tested on: resistant whitefly (BT) (Bemisia tabaci), Ned 7; assay: Whitefly vial test, resistant strain Ned 7; type: in vivo; details: 48 h, read-out: BT (Ned 7) (LC50)
Experimental: as §1, with “per compound. LC50 values (ppm solution) were calculated by using a computer software package ("Polo-PC available from LeOra Software, Berkeley, California) (See M.R. Cahill and B. Hackett in Proceedings Brighton Crop Protection Conference, 1992). The test was carried out using a susceptible strain of whitefly (SUD-S) which was collected in Sudan in 1978 from cotton.” for “per compound.”
The test of Example 16 (BT (SUD-S)) was repeated using a resistant strain of whitefly (Ned 7). The Ned 7 strain was collected in the Netherlands in April, 1993 from hibiscus by J. Fransen and is highly resistant to organophosphate and carbamate insecticides and the insect growth regulator buprofezin.

[6] = tested on: Myzus persicae, susceptible strain (US1L); assay: Aphid dip test, susceptible strain; type: in vivo
Experimental: Activity against resistant (R) and susceptible (S) strains of aphid (Myzus persicae) was assessed using the following method.
Entrapment rings of fluon were painted halfway up the inside of 4 cm lengths of glass tubing (1.5 cm diameter), and squares of insect-proof gauze were attached to one end of each tube by elastic bands. Fifteen apterous adults were then gently transferred into the tubes using a sable-hair brush, and the tube sealed with a second gauze square.
Tubes containing aphids were dipped into insecticide solutions for 10 seconds, dried on blotting paper, and then inverted and tapped to cause treated aphids to fall to the unimmersed end of each tube. Handling mortality (usually zero or very slight) was scored after 1 hour, when aphids were transferred onto chinese cabbage leaf-discs (35 mm diameter) on an agar bed (25 mm in depth) in disposible plastic containers (30 mm high) and confined by applying a ring of fluon to the exposed lip of the container. Containers were store upright, without lids, in a constant environment facility maintained at 25°C under continuous room lighting. Mortality was assessed at 24, 48 and 72 hours. Two replicates of 15 aphids each were used at each dose rate and 5 or 6 dose rates were used per compound under test.
The test was carried out using a susceptible strain of aphids (US1L) collected in the field in East Anglia, UK and an extremely resistant strain of aphids (794Jz) (R3 esterase, sensitive AChE) collected from glasshouses in the UK.
The values given are % mortality corrected for control data. The control comprised the test solution without active ingredient.

Aspergillus niger = assay: Fungitoxicity in vitro on potato dextrose agar; type: cell-based; details: A. niger; 100 mg 1^-1; 4 days
[7] = tested on: Pyricularia oryzae (=Magnaporthe grisea); type: cell-based; details: P. oryzae; 100 mg 1^-1; 7 days
Rhizoctonia solani = assay: Fungitoxicity in vitro on potato dextrose agar; type: cell-based; details: R. solani; 100 mg 1^-1; 4 days
[8] = Mammalian toxicity, whole body LD50; details: rat, in vivo; rats
Text: In addition to the specific insecticidal and acaricidal tests described above, compounds of the present invention were submitted for further tests relating to toxicity to mammals and so-called friendly species such as Chrysloperla carnea, Aleochora bilineata and Coccinella septempunctata.

[9] = ppm solution of test compound, 30 seconds immersion, kill at 72 hours, read-out: TU(GSS) (LC50)
[10] = ppm solution of test compound, 60 minutes film exposure, mortality after 48 hours, read-out: BT(SUD-S) (LC50)

SMILES | MD (LD50) ([1]; topical 1 µl drop in acetone on female flies, kill assessed 24 and 48 hours) | PC (LD50) [2] [µg/insect] | LC50 [3, 9] [mg/L] | LC50 [4, 10] [mg/L] | LC50 [5] [mg/L] | LC50 ([5]; resistant strain Ned 7, ppm solution of test compound) [mg/L] | MD LD50 (µg/insect) ([1]; Tables 10, 13, 14, NA = lack of detectable activity) | PC LD50 (µg/insect) ([2]; Tables 10, 13, 14) | LC50 ([3]; 72 h, Tables 10, 13, 14, susceptible strain, NA = lack of detectable activity, read-out: TU LC50 (ppm/insect)) [mg/L] | LC50 ([4]; 48 h, Tables 10, 13, 14, susceptible strain, NA = lack of detectable activity, read-out: BT LC50 (ppm/insect)) [mg/L] | mortality at 100 ppm ([6]; read-out: MP % kill 100 ppm) [%] | mortality at 100 ppm ([6]; strain S, 100 PPM, read-out: % mortality corrected for control data) [%] | mortality at 250 ppm ([6]; strain S, 250 PPM, read-out: % mortality corrected for control data) [%] | % inhibition of growth in colony diameter in agar plates, Activity at 100 mg 1^-1 (Aspergillus niger) [%] | % inhibition of growth in colony diameter in agar plates, Activity at 100 mg 1^-1 [7] [%] | % inhibition of growth in colony diameter in agar plates, Activity at 100 mg 1^-1 (Rhizoctonia solani) [%] | LD50 [8] [mg/kg]
CCCCCCCCCCCCC1=C(OC(C)=O)C(=O)c2ccccc2C1=O [Compound A, 2-n-dodecyl-3-ethanoyloxynaphthalene-1,4-dione, reference compound] | >> 20 µg/insect | 0.36 | 64 (≈ 166 µM) | 82 (≈ 213 µM) | 470 (≈ 1220 µM) |  |  |  |  |  |  |  |  |  |  |  | 
C=CC(C)(C)C1=C(OC(=O)CCC)C(=O)c2ccccc2C1=O [Example 5] |  | 6.9 | 84 (≈ 269 µM) | 13 (≈ 41.6 µM) |  | 21 (≈ 67.2 µM) |  |  |  |  |  |  |  |  |  |  | 
CC1(C2=C(O)C(=O)c3ccccc3C2=O)CCCCC1 [Example 25, 2-hydroxy-3-(1'-methylcyclohexyl)-naphthalene-1,4-dione] |  |  |  |  |  |  | 1.9 | 5 | 28 (≈ 104 µM) | 0.1 (≈ 0.37 µM) | 22 | 23 | 67 | 45 | 94 | 93 | 2790
